# Patent US20230303572A1, “18-MC SALT FORMS” (Mind Medicine, Inc., priority 2022, published 2023)
# “Also recorded” adds a separate entry of the source. Counter-ions that a name gives are not always drawn.
# Legend:
# Assay type in all cases: physicochemical
# [1] = Physical form stability on storage at RT, air drying or exposure to ambient conditions (XRPD); details: for Form after treatment: metastable forms; for physical stability at ambient conditions: time not stated; for form change after exposure to ambient conditions (XRPD): exposure to ambient conditions for ~30 min
# Excerpt: (§1) For XRPD analysis, a PANalytical Empyrean and X′ Pert3 X-ray powder diffract meter was used.
# [2] = Heating experiments and VT-XRPD (N2 drying, heating, cooling back): form change; details: for Form after heating: solid form by XRPD after heating, cells marked *, # have footnotes that are not shown; for form conversion, summary statement: after desolvation
# Excerpt: as §1
# [3] = Relative thermodynamic stability of HCl salt forms (desolvation and form conversion data); details: for Form after desolvation: solvates of HCl salt
# Protocol: Starting from HCl salt materials with different forms, a total of 100 polymorph screening experiments was performed using different crystallization methods including salt formation by liquid vapor diffusion/slurry at elevated temperature, evaporation at RT/high temperatures, slurry and reverse anti-solvent addition at different temperatures, slow/crash cooling, polymer induced crystallization and grinding. All the resulting solids were isolated for XRPD test, and new forms were further characterized by TGA, DSC, ^1H NMR and HPLC/ IC.
# An additional polymorph screening was performed for 18-MC HCl salt.
# [4] = after air drying or RT storage, duration not stated
# [5] = after storage or heating experiments
smiles,measurement,setting,value
"COCC[C@H]1CC2CN3CCc4c([nH]c5ccccc45)[C@](C(=O)OC)(C2)[C@H]13 [HCl salt Type E, 18-methoxycoronaridine]",Form after treatment,[1]; Air drying,HCl salt Type A**
same,Form after heating,[2],HCl salt Type A**
"COCC[C@H]1CC2CN3CCc4c([nH]c5ccccc45)[C@](C(=O)OC)(C2)[C@H]13 [HCl salt Type G, 18-methoxycoronaridine]",Form after treatment,[1]; RT storage,HCl salt Type A^#
same,Form after heating,[2],HCl salt Type A**
"COCC[C@H]1CC2CN3CCc4c([nH]c5ccccc45)[C@](C(=O)OC)(C2)[C@H]13 [tosylate Type C, 18-methoxycoronaridine]",form change after storage (XRPD),[1]; storage at RT for about 2.5 month,form change to tosylate Type B
same,form change after N2 drying (VT-XRPD),[2]; N2-drying for 30 min at 30° C.,form change was observed for tosylate Type C. The new form was assigned as tosylate Type D
"COCC[C@H]1CC2CN3CCc4c([nH]c5ccccc45)[C@](C(=O)OC)(C2)[C@H]13 [HCl salt Type R, 18-methoxycoronaridine]","form conversion, summary statement",[2],converted to HCl salt Type A
same,form change after heating (XRPD),[2]; heating to 170° C. and cooling back to ambient condition,converted to HCl salt Type A
same,Form after desolvation,[3],HCl salt Type A
"COCC[C@H]1CC2CN3CCc4c([nH]c5ccccc45)[C@](C(=O)OC)(C2)[C@H]13 [HCl salt Type D, 18-methoxycoronaridine]",Form after treatment,[1]; Air drying,HCl salt Type A**
same,Form after heating,[2],HCl salt Type A*
"COCC[C@H]1CC2CN3CCc4c([nH]c5ccccc45)[C@](C(=O)OC)(C2)[C@H]13 [HCl salt Type L, 18-methoxycoronaridine]",Form after treatment,[1]; RT storage,HCl salt Type A^#
same,"form conversion, summary statement",[1]; [4],converted to HCl salt Type A
same,Form after heating,[2],HCl salt Type A
"COCC[C@H]1CC2CN3CCc4c([nH]c5ccccc45)[C@](C(=O)OC)(C2)[C@H]13 [sulfate Type F, 18-methoxycoronaridine]",physical stability at ambient conditions,[1],not physically stable
same,form change after exposure to ambient conditions (XRPD),[1],converted back to sulfate Type D
same,form change after heating (XRPD/VT-XRPD),[2]; heating to 100° C.,remained sulfate Type F
"COCC[C@H]1CC2CN3CCc4c([nH]c5ccccc45)[C@](C(=O)OC)(C2)[C@H]13 [HCl salt Type K, 18-methoxycoronaridine]",Form change after treatment,"[1]; Exposure to ambient conditions (~50%RH), XRPD form",HCl salt Type F^#
"COCC[C@H]1CC2CN3CCc4c([nH]c5ccccc45)[C@](C(=O)OC)(C2)[C@H]13 [HCl salt Type U, 18-methoxycoronaridine]","form conversion, summary statement",[2],converted to HCl salt Type A
same,form change after heating (XRPD/VT-XRPD),[2]; heating to 120° C.,an extra peak representative of HCl salt Type A was observed
same,form change after heating (XRPD),[2]; heating to 150° C.,most diffraction peaks were consistent with HCl salt Type A
same,Form after desolvation,[3],HCl salt Type A
"COCC[C@H]1CC2CN3CCc4c([nH]c5ccccc45)[C@](C(=O)OC)(C2)[C@H]13 [HBr salt Type B, 18-methoxycoronaridine]","form conversion, summary statement",[1]; [5],could convert to HBr salt Type A
same,Form change on storage,[1]; storage at RT for ~20 days,*: Partially converted to HBr salt Type A after storage at RT for ~20 days.
same,form change after storage (XRPD),[1]; storage at RT for ~20 days,partially converted to HBr salt anhydrate Type A
"COCC[C@H]1CC2CN3CCc4c([nH]c5ccccc45)[C@](C(=O)OC)(C2)[C@H]13 [HCl salt Type B, 18-methoxycoronaridine]",Form after heating,[2],HCl salt Type A
same,Form after desolvation,[3],HCl salt Type A
"COCC[C@H]1CC2CN3CCc4c([nH]c5ccccc45)[C@](C(=O)OC)(C2)[C@H]13 [HCl salt Type T, 18-methoxycoronaridine]","form conversion, summary statement",[2],converted to HCl salt Type A
same,form change after heating (XRPD),[2]; heating to 150° C.,most diffraction peaks were consistent with HCl salt Type A
same,Form after desolvation,[3],HCl salt Type A
"COCC[C@H]1CC2CN3CCc4c([nH]c5ccccc45)[C@](C(=O)OC)(C2)[C@H]13 [tosylate Type A, 18-methoxycoronaridine]",form change after storage (XRPD),[1]; storage at RT for ~7 days,peak of tosylate Type B was observed
same,form change after storage (XRPD),[1]; storage for 3 weeks,totally converted to tosylate Type B
same,form change after N2 drying (VT-XRPD),[2]; N2-drying for 30 min at 30° C.,no form change
same,form change after heating (XRPD/VT-XRPD),[2]; heating to 100° C.,"a form change was observed, which was assigned as tosylate Type I"
"COCC[C@H]1CC2CN3CCc4c([nH]c5ccccc45)[C@](C(=O)OC)(C2)[C@H]13 [tosylate Type H, 18-methoxycoronaridine]",form change after air drying (XRPD),[1]; air drying for ~3 hours,form change to tosylate Type A
same,Speculated form (physical stability),[1]; form characterization summary of tosylate,Metastable
"COCC[C@H]1CC2CN3CCc4c([nH]c5ccccc45)[C@](C(=O)OC)(C2)[C@H]13 [HCl salt Type Q, 18-methoxycoronaridine]",form change after N2 drying (VT-XRPD),[2]; N2-drying for 20 min at 30° C.,no form change
same,"form conversion, summary statement",[2],converted to HCl salt Type A
same,form change after heating (VT-XRPD),"[2]; heating to 100° C., 130° C., 160° C. and cooling back to 30° C. under N2 protection",form change to a mixture of HCl salt Type A and freebase Type A
same,Form after desolvation,[3],HCl salt Type A+freebase Type A
"COCC[C@H]1CC2CN3CCc4c([nH]c5ccccc45)[C@](C(=O)OC)(C2)[C@H]13 [tosylate Type I, 18-methoxycoronaridine]",form change after open dish (XRPD),[1]; open dish for ~3 hrs,converted back to tosylate Type A with an extra peak of tosylate Type B
"COCC[C@H]1CC2CN3CCc4c([nH]c5ccccc45)[C@](C(=O)OC)(C2)[C@H]13 [HCl salt Type A+O, 18-methoxycoronaridine]",form change after storage (XRPD),[1]; storage at RT for ~19 days,converted to HCl salt Type A completely
"COCC[C@H]1CC2CN3CCc4c([nH]c5ccccc45)[C@](C(=O)OC)(C2)[C@H]13 [HCl salt Type A, 18-methoxycoronaridine]",thermodynamic stability among HCl salt forms,[3]; at RT,thermodynamically more stable than other anhydrates; also recorded: most thermodynamically stable form
same,thermodynamic stability among hydrochloride salt forms,[3]; temperature not stated,most thermodynamically stable form
"COCC[C@H]1CC2CN3CCc4c([nH]c5ccccc45)[C@](C(=O)OC)(C2)[C@H]13 [HCl salt Type O, 18-methoxycoronaridine]",Form after treatment,[1]; RT storage,HCl salt Type A^#
same,"form conversion, summary statement",[1]; [4],converted to HCl salt Type A
"COCC[C@H]1CC2CN3CCc4c([nH]c5ccccc45)[C@](C(=O)OC)(C2)[C@H]13 [tosylate Type D, 18-methoxycoronaridine]",form change after exposure to ambient conditions (XRPD),[1],converted to tosylate Type B
same,form change after heating (XRPD/VT-XRPD),[2]; heating to 100° C.,no form change
same,form change after heating (VT-XRPD),[2]; heating to 140° C. under N2 protection,an amorphous pattern was observed
"COCC[C@H]1CC2CN3CCc4c([nH]c5ccccc45)[C@](C(=O)OC)(C2)[C@H]13 [sulfate Type C, 18-methoxycoronaridine]","form conversion, summary statement",[1]; [4],converted to sulfate Type A
same,form change after air drying (XRPD),[1]; air drying at RT for ~30 min,converted to sulfate Type A
"COCC[C@H]1CC2CN3CCc4c([nH]c5ccccc45)[C@](C(=O)OC)(C2)[C@H]13 [HCl salt Type C, 18-methoxycoronaridine]",Form after heating,[2],HCl salt Type A
same,Form after desolvation,[3],HCl salt Type A
"COCC[C@H]1CC2CN3CCc4c([nH]c5ccccc45)[C@](C(=O)OC)(C2)[C@H]13 [HCl salt Type J, 18-methoxycoronaridine]",Form after treatment,[1]; RT storage,HCl salt Type F^#
same,Form after heating,[2],HCl salt Type F*
"COCC[C@H]1CC2CN3CCc4c([nH]c5ccccc45)[C@](C(=O)OC)(C2)[C@H]13 [HBr salt Type C, 18-methoxycoronaridine]","form conversion, summary statement",[1]; [5],could convert to HBr salt Type A
same,form change after heating (XRPD/VT-XRPD),[2]; heating to 100° C.,peak of HBr salt Type A was observed
same,form change after heating (XRPD),[2]; heating to 150° C.,most diffraction peaks were consistent with HBr salt Type A
"COCC[C@H]1CC2CN3CCc4c([nH]c5ccccc45)[C@](C(=O)OC)(C2)[C@H]13 [mesylate Type C, 18-methoxycoronaridine]",physical stability at ambient conditions,[1],not found to be physically stable at ambient conditions and easily converted to gels/oils
same,Speculated form (physical stability),[1]; the solid turn to gel-like after air drying at RT in a few minutes,Metastable*
"COCC[C@H]1CC2CN3CCc4c([nH]c5ccccc45)[C@](C(=O)OC)(C2)[C@H]13 [HCl salt Type N, 18-methoxycoronaridine]",Form after treatment,[1]; RT storage,HCl salt Type A^#
same,"form conversion, summary statement",[1]; [4],converted to HCl salt Type A
"COCC[C@H]1CC2CN3CCc4c([nH]c5ccccc45)[C@](C(=O)OC)(C2)[C@H]13 [HBr salt Type D, 18-methoxycoronaridine]","form conversion, summary statement",[1]; [5],could convert to HBr salt Type A
same,form change after heating (XRPD/VT-XRPD),[2]; heating to 100° C.,extra peak of HBr salt Type A was observed
same,form change after heating (XRPD),[2]; heating to 150° C.,most diffraction peaks of the sample were consistent with HBr salt Type A
"COCC[C@H]1CC2CN3CCc4c([nH]c5ccccc45)[C@](C(=O)OC)(C2)[C@H]13 [HCl salt Type A+N, 18-methoxycoronaridine]",form change after storage (XRPD),[1]; storage at RT for ~21 days,converted to HCl salt Type A completely
"COCC[C@H]1CC2CN3CCc4c([nH]c5ccccc45)[C@](C(=O)OC)(C2)[C@H]13 [HCl salt Type I, 18-methoxycoronaridine]",Form after desolvation,[3],HCl salt Type A
